Test results: patent publication US20250161297A1, “COMPOSITIONS AND METHODS FOR INHIBITING FSP1” (THE REGENTS OF THE UNIVERSITY OF CALIFORNIA, priority 2022, published 2025)

Key:
Format in all cases: cell-based
H460^C cells = assay: GPX4 inhibitor-induced cell death with FSEN1 co-treatment
Protocol: (§1) For cell-based screen, cells were seeded in triplicate at a density of 500-750 cells per 50 μL per well in black 384-well plates (NUNC) and (Corning) 24 hr before start of imaging. After 24 hr, an additional 50 μL of drug infused medium containing 30 nM SYTOX Green Dead Cell Stain was carefully placed into the wells on top of existing medium. The plates were immediately transferred to an IncuCyte S3 imaging system (Essen Bioscience) enclosed in an incubator set to 37° C. and 5% CO2. One image per well were captured in the phase, green, and red channels every 1.5 or 3 hr over a 24 hr period, and the ratio of SYTOX Green-positive objects (dead cells) to SYTOX Green-positive plus Sg-SAFE mCherry-positive objects (total cells) was quantified using S3 image analysis software (Essen Bioscience). For each treatment condition, the SYTOX-to-′SYTOX+mCherry′-object ratio was plotted against the 24 hr imaging interval, the Area Under the Curve (AUC) was calculated and the average AUC was plotted using Prism (GraphPad). To calculate the half-maximal effective concentration (EC50) values, the AUC curve was fit to a variable slope function comparing response to drug concentration.
Synergy experiments: For cell-based synergy experiments, cells were seeded at a density of 750 cells per 25 μL per well in four black 384-well plates (Corning) 24 hr before start of imaging. After 24 hr, an additional 25 μL of drug infused medium containing 30 nM SYTOX Green Dead Cell Stain was carefully placed into the wells on top of existing medium. The plates were immediately transferred to an IncuCyte S3 imaging system (Essen Bioscience) enclosed in an incubator set to 37° C. and 5% CO2. One image per well were captured in the phase, green, and red channels every 4 hr over a 24 hr period, and the ratio of SYTOX Green-positive objects (dead cells) to SYTOX Green-positive plus Sg-SAFE mCherry-positive objects (total cells) was quantified using S3 image analysis software (Essen Bioscience). For each treatment condition, the SYTOX-to-′SYTOX+mCherry′-object ratio was plotted against the 24 hr imaging interval, the Area Under the Curve (AUC) was calculated, and the average AUC was plotted as a function of drug concentration (for example, RSL3) using Prism (GraphPad). To calculate the half-maximal effective concentration (EC50) values, the AUC curve was fit to a variable slope function comparing response to drug concentration.

A549 lung cancer cells = assay: RSL3-induced cell death in A549 cells
Protocol: as §1, with “concentration. […]” for “concentration.”

[1] = system: panel of cancer cell lines of various tissue origins; assay: RSL3-induced cell death in a panel of cancer cell lines; details: 1 μM FSEN1; lung, breast, liver, glial, bone, connective, lymphoid, skin lines
Protocol: as §1, with “concentration. […]” for “concentration.”

H460^C FSP1KO cells = assay: RSL3-, DHA- or FINO2-induced cell death in FSP1 knockout cells
Protocol: as §1
Synergy experiments: For cell-based synergy experiments, cells were seeded at a density of 750 cells per 25 μL per well in four black 384-well plates (Corning) 24 hr before start of imaging. […]

COc1ccc(N2CCN(Cc3cn4c(-c5ccc(Br)cc5)nnc4s3)CC2)cc1 [FSEN1]
sensitization to GPX4 inhibitors RSL3 and ML162 (H460^C cells): sensitized | sensitizing effect on ferroptosis induction (A549 lung cancer cells): particularly large sensitizing effect | sensitization to RSL3-induced ferroptosis [1]: sensitized all cancer cells | additional sensitizing effect to DHA and FINO2 induced cell death (H460^C FSP1KO cells; FSP1KO cells): no additional sensitizing effect | additional sensitization to RSL3-induced cell death (H460^C FSP1KO cells; H460^C FSP1KO cells): did not result in any additional sensitization
